Laboratory results reported in US20120283269A1, “Method and Compositions for Suppression of Aging” (HEALTH RESEARCH INC., priority 2009, published 2012).
Entries after “also recorded” stand apart in the source; their conditions may differ.

Tests used:
Type in all cases: cell-based, human
[1] = test system: HT-p21-9 cells; assay: Senescent morphology and beta-Gal staining of HT-p21-9 cells (IPTG-induced p21); details: for cell divisions / arrest in the presence of nutlin-3a alone: nutlin-3a (10 μM), low cell density
Method: FIG. 1. Nutlin-3a converted senescence into quiescence. a. […] Cells were stained for beta-Gal and photographed (original magnification ×400). Bar scale—50 μm. b. […] Then cells were cultured in fresh medium until colonies become visible. Dishes were stained with crystal violet and photographed on day 4 (control) or on day 9 (IPTG- and nutlin-3a-treated).c. […] Before wash. Live HT-p21-9 cells (expressing GFP for better visualization of live cells) were photographed (original magnification ×100) under blue light. 3 d wash. Three days after drug removal. 9 d wash. Nine days after drug removal, cells were stained with crystal violet and photographed. d. Nutlin-3a dose response. […] After 3 days, the plates were washed and cells were incubated for an additional 9 days in fresh medium, stained with crystal violet and photographed. e. Colonies per dish. […] After 3 days, the plates were washed and cells were incubated for an additional 9 days in fresh medium. Colonies were counted and results are shown as percent of control (IPTG alone). f. Cells per dish. As in panel e. Cells were trypsinized and counted. Results are shown as percent of control (IPTG alone).
FIG. 5. Senescent versus quiescent morphology. […] Live cells, visualized with GFP (×100). In control, cells underwent 3 divisions, forming micro-colony.
(§1) Cell lines and reagents. HT-p21-9 and HT-p21-a cells are derivatives of HT1080 human fibrosarcoma cells, where p21 expression can be turned on or off using isopropyl-thio-galactosidase (IPTG) (7, 16, 28, 29, 36). […] HT-p16 cells are derivatives of HT1080 cells in which p16 expression can be turned on or off using IPTG (16, 36). WI-38-Tert, WI-38 are fibroblasts immortalized by telomerase. HT-p21-GSE56 cells: p53 inhibiting peptide GSE56 (18) was introduced into HT1080 p21-9 cells via a retroviral vector LXSE (37). Cells were grown in high glucose DMEM with 10% FC2 serum. WI-38-tert cells were grown in low glucose DMEM with 10% FCS. Rapamycin was obtained from LC Laboratories (Woburn, Mass.). IPTG (final concentration of 50 μg/ml) and FC2 were obtained from Sigma-Aldrich (St. Louis, Mo.).
(§2) Beta-galactosidase staining Beta-gal staining was performed using Senescence-galactosidase staining kit (Cell Signaling Technology).

[2] = test system: p53; assay: Immunoblot for p53 and p21 in HT-p21-9 and HT-p21-GSE56 cells
Method: Control cells were left untreated (no IPTG). After 1 day, cells were lysed and immunoblot was performed. b. […] As a negative control, parental cells were treated with nutlin-3b (open squares).c-d. […] Control cells were left untreated (no IPTG). c. Morphology. After 3 days, cells were stained for beta-Gal. Scale bars—50 μm.d. Colony formation. After 3 days, cells were washed and incubated in fresh medium w/o drugs for an additional 9 days. Plates were stained with crystal violet and photographed. e. Proliferative potential (PP). After 3 days, HT-p21-GSE56 cells were washed and incubated in fresh medium w/o drugs. Cells were counted and results are shown as percent of IPTG alone.
as §1
Immunoblot analysis. Proteins were separated on 4-15% gradient Tris-HCl gels (Bio-Rad). The following antibodies were used: mouse anti-actin from Santa Cruz Biotechnology, rabbit anti-phospho-S6 (Ser240/244) and (Ser235/236), mouse anti-S6, mouse anti-phospho-p70 S6 kinase (Thr389), mouse anti-p21 and anti-p53, rabbit anti-phospho-4E-BP1 (Thr37/46) from Cell Signaling; mouse anti-4E-BP1 from Invitrogen, mouse anti-p53 (Ab-6) from Calbiochem.

[3] = test system: HT-p21-9 cells; assay: Protein content per cell (cellular hypertrophy), IPTG-treated HT-p21-9 cells; details: days 2-5
Method: (§3) FIG. 3. […] Immunoblot. […] Immunoblot was performed as described in the methods for Example 1 below. b. Immunoblot. […] Immunoblot was performed as described in Methods. c. […] After 3 days, cells were washed and incubated in fresh medium w/o drugs for an additional 7 days. Cells were counted and are shown as percent of IPTG alone. d. […] Cells were treated with either IPTG alone (black bars) or IPTG plus rapamycin (white bars) or plus nutlin-3a (grey bars). On days 2, 3, 4, and 5 cells were lysed and protein content per well was measured. […] Cells were labeled with [^35S]methionine/cysteine as described in Methods for Example 1.

[4] = test system: HT-p21-9 cells; assay: Metabolic labeling, [35S]methionine/cysteine incorporation (protein synthesis); details: IPTG-treated cells, 24 h treatment
Method: as §3
FIG. 8. Effects of IPTG and 500 nM rapamycin on protein synthesis ([^35S]methionine/cysteine incorporation). Cells were treated as indicated for 24 hrs and then labeled with [^35S]methionine/cysteine as described in Methods for Example 1.
Metabolic labeling. HT-p21-9 cells were seeded at 25,000 cells/well in 12-well plates. On the next day, cells were treated with drugs. After 24 h, cells were labeled with 30 μCi [^35S]methionine/cysteine (Amersham) per ml of Met/Cys-free Dulbecco's modified Eagle's medium (Invitrogen) for 1 h at 37° C. Cells were washed with PBS and lysed in 1% SDS, with 0.5% BSA. […] Filters were air-dried and counted using liquid scintillation counter.

[5] = test system: WI-38-tert cells; assay: Senescence / quiescence in WI-38-tert fibroblasts
Method: FIG. 4. […] HT-p21-a cells were treated with IPTG and infected with Ad-p53. After 3 days, cells were photographed (original magnification ×200): Upper panel. Under blue light to visualize cells expressing p53 (green cells). Lower panel. Under visible light to visualize all cells. Red arrows indicate cells lacking p53 expression. All of these cells show large, flat cell morphology. Green arrows indicate cells expressing p53. b-d. […] After 1 day, cells were lysed and immunoblot was performed as described in Methods for Example 1. c. […] Cells were then stained for beta-Gal activity and microphotographed. Scale bar—50 μm.d. […] Cells were then trypsinized and counted. […] Results are shown as percent of control.
FIG. 11. Effects of Ad-p21 and Ad-p53 on senescent morphology in WI-38-tert fibroblasts. WI-38-tert cells were infected with either p21-expressing adenovirus (Ad-p21) or p53-expressing adenovirus (Ad-p53) or both. After 3 days, cells were stained for beta-Gal.
as §1, §2

COc1ccc(C2=N[C@@H](c3ccc(Cl)cc3)[C@@H](c3ccc(Cl)cc3)N2C(=O)N2CCNC(=O)C2)c(OC(C)C)c1 [nutlin-3a]
cell morphology and SA-beta-Gal staining ([1]; 10 μM nutlin-3a alone, 3 days): remained small, lean and SA-beta-Gal-negative | senescent morphology caused by IPTG ([1]; IPTG plus compound (10 μM nutlin-3a), 3 days): prevented the senescent morphology caused by IPTG; also recorded: suppressed senescence in IPTG-treated HT-p21-9 cells only | cytostatic effect of IPTG ([1]; IPTG plus nutlin-3a): did not abrogate the cytostatic effect of IPTG | cell divisions / arrest in the presence of nutlin-3a alone ([1]; 3 days): underwent one division and did not proliferate further | cell divisions / arrest in the presence of nutlin-3a alone ([1]; 3 days, listed as Nutlin-3a): arrested after one division with normal cell morphology | induction of p21 by IPTG in HT-p21-GSE56 cells ([2]; 1 day): did not affect this induction | p53 levels in HT-p21-GSE56 cells ([2]; 1 day): did not affect p53 levels in HT-p21-GSE56 cells | p53 levels in HT-p21 cells ([2]; 1 day): induced p53 in HT-p21 cells | levels of p21 induced by IPTG ([2]; HT-p21 cells, IPTG plus compound): neither abrogated nor diminished the levels of p21; also recorded: did not prevent induction of p21 by IPTG | protein content per cell [3]: decreased the protein content per cell | protein synthesis ([35S]methionine/cysteine incorporation) [4]: inhibited ^35S-methionine/cysteine incorporation in IPTG-treated HT-p21-9 cells in a dose-dependent manner | senescence induced by H2O2 ([5]; 10 μM nutlin-3a 3 days, washed, 3 more days, beta-Gal): suppressed senescence induced by H2O2 | proliferative potential in H2O2-treated cells ([5]; 10 μM nutlin-3a 3 days, washed, 6 more days): partially preserved proliferative potential | type of arrest in WI-38-tert cells ([5]; compound alone): caused quiescence
